{"source": "paper PMC2363649", "about": "“MDR1 causes resistance to the antitumour drug miltefosine” (British Journal of Cancer, 2001)", "key": {"[1]": {"molecular_target": "T1, P-glycoprotein (PGP) (Cricetulus griseus, UniProt P21448)", "T1 construct": "gene ABCB1; highly purified PGP from CHR B30 cells, labelled with MIANS at two conserved cysteine residues within the Walker A motifs", "T1 sequence (P21448 whole entry)": "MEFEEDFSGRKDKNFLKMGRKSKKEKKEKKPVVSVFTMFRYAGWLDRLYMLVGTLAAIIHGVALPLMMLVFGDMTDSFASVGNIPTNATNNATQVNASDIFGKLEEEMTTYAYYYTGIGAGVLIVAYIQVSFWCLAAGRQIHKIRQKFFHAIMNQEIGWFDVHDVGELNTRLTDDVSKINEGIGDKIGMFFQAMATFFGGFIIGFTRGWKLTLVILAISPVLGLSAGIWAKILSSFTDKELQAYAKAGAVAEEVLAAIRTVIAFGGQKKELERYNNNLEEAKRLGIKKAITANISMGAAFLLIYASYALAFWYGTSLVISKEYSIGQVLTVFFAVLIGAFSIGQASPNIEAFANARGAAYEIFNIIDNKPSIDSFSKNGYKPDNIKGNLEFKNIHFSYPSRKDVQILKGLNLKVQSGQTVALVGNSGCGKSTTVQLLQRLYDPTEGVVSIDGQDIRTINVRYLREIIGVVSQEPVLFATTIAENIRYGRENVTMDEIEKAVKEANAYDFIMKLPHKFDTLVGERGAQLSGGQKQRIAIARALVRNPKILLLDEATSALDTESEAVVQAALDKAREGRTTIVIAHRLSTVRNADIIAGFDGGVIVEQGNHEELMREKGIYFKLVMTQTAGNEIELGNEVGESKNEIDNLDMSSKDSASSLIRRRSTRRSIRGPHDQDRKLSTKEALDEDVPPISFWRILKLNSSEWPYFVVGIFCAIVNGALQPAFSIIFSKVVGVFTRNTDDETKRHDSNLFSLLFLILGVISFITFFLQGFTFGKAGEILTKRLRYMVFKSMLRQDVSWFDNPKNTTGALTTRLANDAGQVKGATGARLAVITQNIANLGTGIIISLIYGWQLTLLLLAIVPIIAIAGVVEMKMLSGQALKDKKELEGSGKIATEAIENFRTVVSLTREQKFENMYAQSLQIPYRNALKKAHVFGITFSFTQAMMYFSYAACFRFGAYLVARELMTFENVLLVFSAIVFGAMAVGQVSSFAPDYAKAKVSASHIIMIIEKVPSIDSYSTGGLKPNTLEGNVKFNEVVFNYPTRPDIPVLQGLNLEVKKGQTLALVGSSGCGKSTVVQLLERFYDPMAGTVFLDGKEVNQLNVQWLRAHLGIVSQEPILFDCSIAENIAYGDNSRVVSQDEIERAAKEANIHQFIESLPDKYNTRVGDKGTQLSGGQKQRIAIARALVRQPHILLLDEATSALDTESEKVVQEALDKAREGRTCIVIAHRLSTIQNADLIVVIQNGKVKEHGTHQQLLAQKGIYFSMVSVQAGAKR", "experiment": "MIANS-PGP fluorescence quenching titration", "format": "binding"}, "[2]": {"molecular_target": "T2, ABC transporter YvcC (Bacillus subtilis, UniProt O06967)", "T2 construct": "gene bmrA", "T2 sequence (O06967 1-589)": "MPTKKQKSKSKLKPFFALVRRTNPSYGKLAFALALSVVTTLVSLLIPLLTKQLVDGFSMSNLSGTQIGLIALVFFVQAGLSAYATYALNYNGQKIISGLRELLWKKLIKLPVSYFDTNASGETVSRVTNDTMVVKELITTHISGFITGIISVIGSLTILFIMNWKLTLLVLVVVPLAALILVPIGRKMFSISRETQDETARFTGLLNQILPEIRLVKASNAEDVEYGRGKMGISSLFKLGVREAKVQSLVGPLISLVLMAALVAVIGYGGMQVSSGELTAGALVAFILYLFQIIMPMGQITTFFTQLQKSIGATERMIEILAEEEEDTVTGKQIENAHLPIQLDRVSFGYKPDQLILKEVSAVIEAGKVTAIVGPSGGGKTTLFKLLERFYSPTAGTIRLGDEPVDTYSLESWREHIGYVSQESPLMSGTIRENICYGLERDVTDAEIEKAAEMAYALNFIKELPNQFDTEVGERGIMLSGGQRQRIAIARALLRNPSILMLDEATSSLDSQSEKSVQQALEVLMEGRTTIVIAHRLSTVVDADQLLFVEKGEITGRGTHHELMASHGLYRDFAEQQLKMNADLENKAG", "experiment": "binding Kd (data not shown; method not stated)"}}, "data": [{"smiles": "CCCCCCCCCCCCCCCCOP(=O)([O-])OCC[N+](C)(C)C", "note": "[miltefosine]", "values": [{"measurement": "Kd", "setting": "[1]", "value": "~7", "unit": "µM"}, {"measurement": "Kd", "setting": "[2]", "value": "2 to 3", "unit": "µM"}]}]}
